Eleven molecules from ChEMBL document CHEMBL1201862, “PubChem BioAssay data set” (2004) can be followed below.

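Cultured in 96-well plates, cells were exposed to test compound for 48 hours across five concentrations. At the GI50, growth is halved.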 The source made the active and inactive calls. No stated cut-off is given here; in the data, active = GI50 up to about 1.1 µM and inactive = higher.

Test systems include NCI-H460; RXF 393; EKVX; A498; A549; HT-29; HCC 2998; SNB-75; NCI-H226; NCI-H522; OVCAR-8; NCI-H23; OVCAR-3; SF-539; HCT-116; RPMI-8226; HOP-92; SK-MEL-5; MDA-MB-435; DU-145.
What all share (experiment): NCI anticancer screen, dose series, 48 h

As for `C/C(CC(=O)Nc1cccc(Cl)c1C)=N\N=C(N)N`, the GI50 in the assay on NCI-H460, with RXF 393, in the assay on EKVX, in the assay on A498, in the assay with A549 and with HT-29 was > 100 µM (inactive) throughout. The GI50 in the assay on HCC 2998, in the assay on SNB-75, in the assay with NCI-H226, with NCI-H522, in the assay with OVCAR-8 and with NCI-H23 was > 100 µM (inactive) each time. Further, the GI50 in the assay with OVCAR-3, with SF-539, in the assay on HCT-116, in the assay on RPMI-8226, in the assay with HOP-92 and in the assay with SK-MEL-5 was > 100 µM (inactive) throughout.
With `CC1(C)C(O)C[C@]23CCC[C@](C)(C[C@@H](O)C12)C3` (some centres not stated), the GI50 was > 100 µM (inactive) with NCI-H460; > 100 µM (inactive) in the assay with EKVX; > 100 µM (inactive) with MDA-MB-435; 38.2 µM (inactive) in the assay with A549; > 100 µM (inactive) in the assay on HT-29; > 100 µM (inactive) in the assay with SNB-75. Besides, the GI50 with NCI-H226, in the assay on NCI-H522, in the assay on OVCAR-8, with NCI-H23, in the assay with OVCAR-3 and with RPMI-8226 was > 100 µM (inactive) throughout. In addition, the GI50 with HOP-92 and with SK-MEL-5 was > 100 µM (inactive) in each case.
As to `CN1CCOC(C(NC(=O)c2ccccc2)c2ccccc2)C1=O` (configuration not stated), the GI50 in the assay on NCI-H460, in the assay on RXF 393, in the assay on EKVX, in the assay with A498, in the assay with A549 and in the assay with HT-29 was > 100 µM (inactive) throughout. The GI50 was > 100 µM (inactive) with HCC 2998; 24.3 µM (inactive) in the assay with SNB-75; > 100 µM (inactive) with NCI-H226; > 100 µM (inactive) with NCI-H522; > 100 µM (inactive) with OVCAR-8; > 100 µM (inactive) in the assay on NCI-H23. The GI50 with OVCAR-3, in the assay with SF-539, in the assay on HCT-116, in the assay on RPMI-8226, in the assay on HOP-92 and in the assay on SK-MEL-5 was > 100 µM (inactive) each time.
As to `CC(C)(C)C(=O)Nc1c(C=O)ccc2[nH]cnc12`, the GI50 with NCI-H460, in the assay on RXF 393, in the assay on EKVX, with A498, in the assay with MDA-MB-435 and in the assay with A549 was > 100 µM (inactive) throughout. Also, the GI50 in the assay with HCC 2998, in the assay on SNB-75, in the assay with NCI-H226, in the assay with NCI-H522, in the assay on OVCAR-8 and in the assay on NCI-H23 was > 100 µM (inactive) each time. Moreover, the GI50 was 80.9 µM (inactive) in the assay on OVCAR-3; > 100 µM (inactive) with SF-539; > 100 µM (inactive) with HCT-116; 89.9 µM (inactive) in the assay with RPMI-8226; > 100 µM (inactive) with HOP-92; 78.7 µM (inactive) in the assay with SK-MEL-5.
Regarding `CCOc1cccc(/C=N/N=C2\C(=O)Nc3c(Cl)cc(Cl)cc32)c1O`, the GI50 is 37 µM (inactive) with NCI-H460; > 100 µM (inactive) in the assay with RXF 393; 5.97 µM (inactive) in the assay on EKVX; 36.6 µM (inactive) in the assay with A498; 44.8 µM (inactive) with MDA-MB-435; > 100 µM (inactive) with A549. The GI50 was > 100 µM (inactive) with HT-29; 85.7 µM (inactive) with HCC 2998; 40.9 µM (inactive) in the assay on SNB-75; > 100 µM (inactive) in the assay on NCI-H226; 60.5 µM (inactive) in the assay with OVCAR-8; 50.1 µM (inactive) in the assay on NCI-H23. The GI50 was 36.9 µM (inactive) in the assay on OVCAR-3; 53.6 µM (inactive) in the assay on SF-539; 74.3 µM (inactive) in the assay on HCT-116; 75.7 µM (inactive) in the assay on HOP-92; 64.4 µM (inactive) in the assay on SK-MEL-5.
As to `O=C(C[n+]1ccccc1)NNC(=O)/C(=C/c1ccc2c(c1)OCO2)NC(=O)c1ccccc1`, the GI50 in the assay with NCI-H460 is > 57.7 µM (inactive); with RXF 393 it was 41.7 µM (inactive); in the assay with EKVX, > 100 µM (inactive); in the assay on A498, > 100 µM (inactive); in the assay with A549 it was > 76.4 µM (inactive); in the assay with HT-29, > 71.8 µM (inactive). Moreover, the GI50 in the assay with HCC 2998 was > 100 µM (inactive); in the assay with SNB-75, 36.7 µM (inactive); in the assay with NCI-H226, 36.7 µM (inactive); in the assay with NCI-H522 it was 29 µM (inactive); in the assay on OVCAR-8, 30 µM (inactive); in the assay with NCI-H23, > 79.1 µM (inactive). Moreover, the GI50 with OVCAR-3 is 29.9 µM (inactive); in the assay with SF-539 it was 29.4 µM (inactive); in the assay on HCT-116 it was 68.9 µM (inactive); with RPMI-8226 it was 24.5 µM (inactive); in the assay on HOP-92 it was > 100 µM (inactive); in the assay on SK-MEL-5, 32.4 µM (inactive).
On to `O=C(NC1CCCCCC1)C1C(=O)N(C2CCCCCC2)C(=O)/C1=N\O` (configuration not stated), for which the GI50 with NCI-H460 is 35.7 µM (inactive); in the assay on RXF 393 it was 23.5 µM (inactive); in the assay on EKVX it was 36.2 µM (inactive); with A498 it was 32.9 µM (inactive); in the assay with A549, 42.8 µM (inactive); in the assay with HT-29, 30.3 µM (inactive). Moreover, the GI50 is 19.5 µM (inactive) with HCC 2998; 26.6 µM (inactive) in the assay on SNB-75; 35.6 µM (inactive) with NCI-H226; 19.6 µM (inactive) in the assay on NCI-H522; 38.6 µM (inactive) with OVCAR-8; 26.5 µM (inactive) in the assay with NCI-H23. Also, the GI50 was 17.6 µM (inactive) with OVCAR-3; 25.2 µM (inactive) in the assay with SF-539; 17.3 µM (inactive) in the assay with HCT-116; 29.1 µM (inactive) in the assay on RPMI-8226; 20.6 µM (inactive) in the assay with HOP-92; 36.1 µM (inactive) in the assay on SK-MEL-5.
For the molecule `CS(=O)(=O)c1nc(-c2cc3c(c(S(C)(=O)=O)n2)CCC3)cc2c1CCCC2`, the GI50 in the assay with RXF 393 is 15.6 µM (inactive); in the assay with EKVX, > 100 µM (inactive); with DU-145 it was > 100 µM (inactive); in the assay on MDA-MB-435, > 100 µM (inactive); with A549, > 100 µM (inactive); with HT-29 it was > 100 µM (inactive). Moreover, the GI50 in the assay with HCC 2998 was > 100 µM (inactive); in the assay on SNB-75, 8.63 µM (inactive); with NCI-H226, > 100 µM (inactive); in the assay with NCI-H522, 17 µM (inactive); with OVCAR-8, 19.1 µM (inactive); in the assay on NCI-H23, 58.3 µM (inactive). Also, the GI50 in the assay with OVCAR-3 is > 100 µM (inactive); in the assay on SF-539, 49.3 µM (inactive); with HCT-116 it was > 100 µM (inactive); in the assay on RPMI-8226, > 100 µM (inactive); with SK-MEL-5 it was > 100 µM (inactive).
As to `CC(=O)O[C@H]1C(=O)[C@@]2(C)C(C(OC(=O)c3ccccc3)[C@]3(O)CC(OC(=O)C(O)C(NC(=O)c4cccc(Cl)c4)c4ccccc4)C(C)=C1C3(C)C)[C@]1(OC(C)=O)CO[C@@H]1C[C@@H]2O` (some centres not stated), the GI50 in the assay with NCI-H460 was 0.419 µM (active); in the assay on EKVX, > 10 µM (inactive); in the assay on DU-145, 0.546 µM (active); in the assay on MDA-MB-435 it was 0.118 µM (active); in the assay with A549, 0.693 µM (active); with HT-29 it was 0.269 µM (active). Further, the GI50 in the assay with HCC 2998 was 0.0664 µM (active); in the assay with SNB-75, 1.1 µM (active); in the assay with NCI-H226, > 10 µM (inactive); with NCI-H522, 0.912 µM (active); in the assay on OVCAR-8, 0.653 µM (active); with NCI-H23 it was 1.39 µM (inactive). Moreover, the GI50 in the assay on OVCAR-3 is 0.449 µM (active); with SF-539, 0.353 µM (active); with HCT-116, 0.16 µM (active); in the assay on RPMI-8226 it was 0.405 µM (active); in the assay with HOP-92, > 10 µM (inactive); with SK-MEL-5 it was 0.42 µM (active).
With `C[N+](C)(C)CC1CCCC(C[N+](C)(C)C)C1O` (configuration not stated), the GI50 in the assay with NCI-H460, in the assay with RXF 393, with EKVX, in the assay with A498, with A549 and in the assay on HT-29 was > 100 µM (inactive) each time. For the same molecule, the GI50 in the assay on HCC 2998, in the assay with SNB-75, in the assay with NCI-H226, in the assay on NCI-H522, in the assay on OVCAR-8 and in the assay with NCI-H23 was > 100 µM (inactive) each time. The GI50 in the assay on OVCAR-3, in the assay with SF-539, in the assay on HCT-116, with RPMI-8226, in the assay with HOP-92 and with SK-MEL-5 was > 100 µM (inactive) each time.
As to `O=C1C(Cl)=C(Cl)C(=O)N1c1ccccc1Cl`, the GI50 in the assay with NCI-H460 is > 100 µM (inactive); in the assay on RXF 393 it was 50.2 µM (inactive); with EKVX it was > 100 µM (inactive); in the assay on A498 it was > 100 µM (inactive); in the assay with A549, > 100 µM (inactive); in the assay with HT-29, > 71 µM (inactive). The GI50 was > 100 µM (inactive) in the assay on HCC 2998; > 100 µM (inactive) in the assay on SNB-75; > 100 µM (inactive) in the assay on NCI-H226; 8.24 µM (inactive) in the assay with NCI-H522; > 100 µM (inactive) in the assay with OVCAR-8; > 85.9 µM (inactive) with NCI-H23. In addition, the GI50 in the assay on OVCAR-3 was 99.3 µM (inactive); in the assay on SF-539 it was > 100 µM (inactive); with HCT-116, > 100 µM (inactive); in the assay on RPMI-8226, > 54.1 µM (inactive); with HOP-92 it was > 36.7 µM (inactive); with SK-MEL-5, > 100 µM (inactive).
